# Earlier results, collected in patent US20240180159A1, “NEW OIL SUSPENSION CONCENTRATE COMPOSITION” (SYNGENTA CROP PROTECTION AG, priority 2021, published 2024).
# Conditions: basic pH 8-14 conditions
smiles,measurement,value
CN1COCN(Cc2cnc(Cl)s2)/C1=N\[N+](=O)[O-] [thiamethoxam],susceptibility to hydrolysis,susceptible to hydrolysis
